# From PubChem BioAssay AID330 (DTP/NCI, 2004)
# Several values for one entry are separate records, joined by “and”; a condition that tells them apart may be missing. Identical values can stand only once. Inconclusive results and toxic doses are left out.
# System: P388 leukemia ip, CD2F1 mice, survival T/C
# Experiment: NCI In Vivo Anticancer Drug Screen. Data for tumor model P388 Leukemia (intraperitoneal) in CD2F1 (CDF1) mice
# Conditions: endpoint: median survival time, higher = longer survival
# How it was run: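 Mice carrying the transplanted tumor received test compound or vehicle. Survival was recorded in each group, and the value is the treated-group measurement divided by that of the vehicle-treated control group.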
# [1] = dose: 25.0 mg/kg/injection, schedule: Q01DX009 (ip), vehicle: Klucel (hydroxypropylcellulose) (HPC)
# [2] = dose: 50.0 mg/kg/injection, schedule: Q01DX009 (ip), vehicle: Klucel (hydroxypropylcellulose) (HPC)
# [3] = dose: 100.0 mg/kg/injection, schedule: Q01DX009 (ip), vehicle: Klucel (hydroxypropylcellulose) (HPC)
# [4] = dose: 50.0 mg/kg/injection, schedule: Q01DX009 (ip), vehicle: saline with Tween-80
# [5] = dose: 100.0 mg/kg/injection, schedule: Q01DX009 (ip), vehicle: saline with Tween-80
# [6] = dose: 200.0 mg/kg/injection, schedule: Q01DX009 (ip), vehicle: saline with Tween-80
# [7] = dose: 50.0 mg/kg/injection, schedule: Q01DX009 (ip), vehicle: saline
# [8] = dose: 60.0 mg/kg/injection, schedule: Q01DX005 (ip), vehicle: Klucel (hydroxypropylcellulose) (HPC)
# [9] = dose: 120.0 mg/kg/injection, schedule: Q01DX005 (ip), vehicle: Klucel (hydroxypropylcellulose) (HPC)
# [10] = dose: 50.0 mg/kg/injection, schedule: Q01DX005 (ip), vehicle: saline
# [11] = dose: 100.0 mg/kg/injection, schedule: Q01DX005 (ip), vehicle: saline
# [12] = dose: 200.0 mg/kg/injection, schedule: Q01DX005 (ip), vehicle: saline
# [13] = dose: 15.0 mg/kg/injection, schedule: Q01DX005 (ip), vehicle: saline
# [14] = dose: 30.0 mg/kg/injection, schedule: Q01DX005 (ip), vehicle: saline
# [15] = dose: 60.0 mg/kg/injection, schedule: Q01DX005 (ip), vehicle: saline
compound,measurement,setting,value
COc1cc2c(c3c1C(=O)c1c(cc4c(c1O)C(OC)CC(C)(O)C4)C3=O)OC1OC2(C)C(O)C(N(C)C)C1O (stereo not given),T/C,"dose: 1.25 mg/kg/injection, schedule: Q01DX009 (ip), vehicle: other",117 % of control
same,T/C,"dose: 2.5 mg/kg/injection, schedule: Q01DX009 (ip), vehicle: other",98 % of control
same,T/C,"dose: 5.0 mg/kg/injection, schedule: Q01DX009 (ip), vehicle: other",102 % of control
same,T/C,"dose: 20.0 mg/kg/injection, schedule: Q01DX009 (ip), vehicle: other",124 % of control
same,T/C,"dose: 40.0 mg/kg/injection, schedule: Q01DX009 (ip), vehicle: other",123 % of control
same,T/C,"dose: 200.0 mg/kg/injection, schedule: Q01DX009 (ip), vehicle: other",179 % of control
COC(=O)C1C(=O)OC(C(C)(C)Cl)C1C(=O)OC (stereo not given),T/C,"dose: 100.0 mg/kg/injection, schedule: Q04DX002 (ip), vehicle: saline with Tween-80",99 % of control
same,T/C,"dose: 200.0 mg/kg/injection, schedule: Q04DX002 (ip), vehicle: saline with Tween-80",98 % of control
same,T/C,"dose: 400.0 mg/kg/injection, schedule: Q04DX002 (ip), vehicle: saline with Tween-80",101 % of control
C1=C(B2OCCNO2)CCCC1,T/C,"dose: 100.0 mg/kg/injection, schedule: Q01DX001 (ip), vehicle: saline",101 % of control
same,T/C,"dose: 200.0 mg/kg/injection, schedule: Q01DX001 (ip), vehicle: saline",96 % of control
same,T/C,"dose: 400.0 mg/kg/injection, schedule: Q01DX001 (ip), vehicle: saline",104 % of control
CC/C(=C(/CC)c1ccc(OCC(=O)N/N=C2/C=C3CCC4C(CCC5(C)C(O)CCC45)C3(C)CC2)cc1)c1ccc(OCC(=O)N/N=C2\C=C3CCC4C(CCC5(C)C(O)CCC45)C3(C)CC2)cc1 (stereo not given),T/C,"dose: 50.0 mg/kg/injection, schedule: Q01DX001 (ip), vehicle: Klucel (hydroxypropylcellulose) (HPC)",95 % of control
same,T/C,"dose: 100.0 mg/kg/injection, schedule: Q01DX001 (ip), vehicle: Klucel (hydroxypropylcellulose) (HPC)",87 % of control
NC(=S)N/N=C/c1ccccc1,T/C,"dose: 12.5 mg/kg/injection, schedule: Q04DX003 (ip), vehicle: Klucel (hydroxypropylcellulose) (HPC)",116 % of control
same,T/C,"dose: 25.0 mg/kg/injection, schedule: Q04DX003 (ip), vehicle: Klucel (hydroxypropylcellulose) (HPC)",109 % of control
CC/C(=C/C(F)(F)C(F)(F)C(F)(F)F)[N+](=O)[O-],T/C,[1],96 % of control
same,T/C,[2],104 % of control
same,T/C,[3],102 % of control
CN(/N=C/c1ccccc1O)C(=O)c1ccccc1N,T/C,[4],105 % of control
same,T/C,[5],107 % of control
same,T/C,[6],104 % of control
O=C(O)C1Cc2c([nH]c3ccccc23)C(CCCCO)N1 (stereo not given),T/C,"dose: 6.25 mg/kg/injection, schedule: Q01DX009 (ip), vehicle: Klucel (hydroxypropylcellulose) (HPC)",101 % of control
same,T/C,"dose: 12.5 mg/kg/injection, schedule: Q01DX009 (ip), vehicle: Klucel (hydroxypropylcellulose) (HPC)",99 % of control
CC1(C)C(N)C(C)(C)C1N (stereo not given),T/C,[7],94 % of control
same,T/C,"dose: 100.0 mg/kg/injection, schedule: Q01DX009 (ip), vehicle: saline",97 % of control
same,T/C,"dose: 200.0 mg/kg/injection, schedule: Q01DX009 (ip), vehicle: saline",86 % of control
O=C(O)CN(CCN(CC(=O)O)CC(=O)O)CC(=O)O.[Cd+2],T/C,"dose: 1.56 mg/kg/injection, schedule: Q01DX009 (ip), vehicle: saline",97 % of control
same,T/C,"dose: 3.12 mg/kg/injection, schedule: Q01DX009 (ip), vehicle: saline",91 % of control
same,T/C,"dose: 6.25 mg/kg/injection, schedule: Q01DX009 (ip), vehicle: saline",91 % of control and 94 % of control
same,T/C,"dose: 12.5 mg/kg/injection, schedule: Q01DX009 (ip), vehicle: saline",92 % of control and 95 % of control
same,T/C,"dose: 25.0 mg/kg/injection, schedule: Q01DX009 (ip), vehicle: saline",92 % of control and 97 % of control
same,T/C,[7],88 % of control
CCOC1(OCC)CC(c2ccccc2)c2cnn(-c3ccccc3)c2O1 (stereo not given),T/C,[8],92 % of control
same,T/C,[9],93 % of control
same,T/C,"dose: 240.0 mg/kg/injection, schedule: Q01DX005 (ip), vehicle: Klucel (hydroxypropylcellulose) (HPC)",87 % of control
O=c1[nH]c2cc([N+](=O)[O-])ccc2nc1/C=C(\O)c1ccncc1,T/C,"dose: 60.0 mg/kg/injection, schedule: Q01DX005 (ip), vehicle: Klucel + Tween-80",94 % of control
same,T/C,"dose: 120.0 mg/kg/injection, schedule: Q01DX005 (ip), vehicle: Klucel + Tween-80",88 % of control
same,T/C,"dose: 240.0 mg/kg/injection, schedule: Q01DX005 (ip), vehicle: Klucel + Tween-80",100 % of control
O=C1CCC(NC(=O)c2ccccc2)C(=O)N1 (stereo not given),T/C,"dose: 31.25 mg/kg/injection, schedule: Q01DX005 (ip), vehicle: Klucel (hydroxypropylcellulose) (HPC)",102 % of control
same,T/C,"dose: 60.0 mg/kg/injection, schedule: Q01DX005 (ip), vehicle: saline with Tween-80",98 % of control
same,T/C,"dose: 62.5 mg/kg/injection, schedule: Q01DX005 (ip), vehicle: Klucel (hydroxypropylcellulose) (HPC)",98 % of control
same,T/C,"dose: 120.0 mg/kg/injection, schedule: Q01DX005 (ip), vehicle: saline with Tween-80",107 % of control
same,T/C,"dose: 125.0 mg/kg/injection, schedule: Q01DX005 (ip), vehicle: Klucel (hydroxypropylcellulose) (HPC)",102 % of control
same,T/C,"dose: 240.0 mg/kg/injection, schedule: Q01DX005 (ip), vehicle: saline with Tween-80",100 % of control
same,T/C,"dose: 250.0 mg/kg/injection, schedule: Q01DX005 (ip), vehicle: Klucel (hydroxypropylcellulose) (HPC)",100 % of control
same,T/C,"dose: 500.0 mg/kg/injection, schedule: Q01DX005 (ip), vehicle: Klucel (hydroxypropylcellulose) (HPC)",92 % of control
COc1ccccc1N1C(=O)C(=O)C(C(C)=O)C1=O (stereo not given),T/C,[2],107 % of control
same,T/C,[3],106 % of control
same,T/C,"dose: 200.0 mg/kg/injection, schedule: Q01DX009 (ip), vehicle: Klucel (hydroxypropylcellulose) (HPC)",108 % of control
CCCCCCCCSCCN(CC)CC,T/C,[10],104 % of control
same,T/C,[11],103 % of control
same,T/C,[12],95 % of control
C[N+]1(Cc2ccccc2)C2CCC(O)C1CC2 (stereo not given),T/C,[13],103 % of control
same,T/C,[14],100 % of control
same,T/C,[15],102 % of control
CN(C)C(=S)c1cccc2ccccc12,T/C,[4],86 % of control
same,T/C,[5],96 % of control
same,T/C,[6],114 % of control
NC(=S)c1ccc(Br)cc1,T/C,[2],97 % of control
same,T/C,[3],104 % of control
NC(N)=NCCCC1NC(=O)C(Cc2ccc(O)cc2)NC1=O (stereo not given),T/C,"dose: 50.0 mg/kg/injection, schedule: Q01DX005 (ip), vehicle: saline with Tween-80",98 % of control and 93 % of control
same,T/C,"dose: 100.0 mg/kg/injection, schedule: Q01DX005 (ip), vehicle: saline with Tween-80",100 % of control
same,T/C,"dose: 200.0 mg/kg/injection, schedule: Q01DX005 (ip), vehicle: saline with Tween-80",100 % of control and 101 % of control
COc1ccc2c(c1OC)OCC(CN(C)C)C2=O (stereo not given),T/C,[13],100 % of control and 102 % of control
same,T/C,[14],108 % of control and 111 % of control
same,T/C,[15],106 % of control and 110 % of control and 114 % of control
same,T/C,"dose: 120.0 mg/kg/injection, schedule: Q01DX005 (ip), vehicle: saline",114 % of control and 116 % of control
CCN(CC)CCNC(=O)Cc1cc(O)c2c(c1O)C(=O)c1ccccc1C2=O,T/C,"dose: 100.0 mg/kg/injection, schedule: Q04DX003 (ip), vehicle: saline with Tween-80",106 % of control
same,T/C,"dose: 200.0 mg/kg/injection, schedule: Q04DX003 (ip), vehicle: saline with Tween-80",106 % of control
same,T/C,"dose: 400.0 mg/kg/injection, schedule: Q04DX003 (ip), vehicle: saline with Tween-80",106 % of control
COc1ccc(S(=O)(=O)c2cnc(N3CCCCC3)nc2N)cc1,T/C,"dose: 100.0 mg/kg/injection, schedule: Q04DX002 (ip), vehicle: saline",100 % of control
same,T/C,"dose: 200.0 mg/kg/injection, schedule: Q04DX002 (ip), vehicle: saline",98 % of control
same,T/C,"dose: 400.0 mg/kg/injection, schedule: Q04DX002 (ip), vehicle: saline",97 % of control
CSc1n[nH]c(-c2cccs2)n1,T/C,[8],104 % of control
same,T/C,[9],105 % of control
O=[N+]([O-])c1cc(S(=O)(=O)O)cc([N+](=O)[O-])c1Cl,T/C,[1],116 % of control
same,T/C,[2],114 % of control
same,T/C,[3],119 % of control
Cc1[nH]c2ccccc2c1CCCO,T/C,[10],105 % of control
same,T/C,[11],100 % of control
same,T/C,[12],105 % of control
COc1cccc(OC)c1N(CCO)CCO,T/C,[4],101 % of control
same,T/C,[5],95 % of control
same,T/C,[6],106 % of control
